The results in this text go back to PubChem BioAssay (NCI).

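All cell lines were grown in 96-well plates and treated with compound for 48 hours. TGI is the concentration that stops growth completely.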

Common to all, as to assay: NCI anticancer screen, dose series, 48 h
In assay [1] the test system is BT-549 breast.
For assay [2], the system named is KM12 colon.
Assay [3] has as its system M14 melanoma.
In assay [4] the test system is MDA-N.
The test system of assay [5] is OVCAR-3 ovarian.
Assay [6] deals with OVCAR-5 ovarian.
Assay [7] concerns SF-539 CNS.

In the case of `O=C1N/C(=N\N=C\c2ccccc2)C(c2ccccc2)O1` (configuration not stated), the TGI in assay [1], in assay [2], in assay [3], in assay [4], in assay [5] and in assay [6] was > 100 µM in each case. Moreover, the TGI in assay [7] was > 100 µM.

Regarding `FC(F)(F)c1ccc(C2ON=C(c3ccccc3)N2C23CC4CC(CC(C4)C2)C3)cc1` (configuration not stated), the TGI in assay [1], in assay [2], in assay [3], in assay [4], in assay [5] and in assay [6] was > 10 µM throughout. Besides, the TGI in assay [7] is > 10 µM.

In the case of `O=C/C(=C1/C=Cc2cc([N+](=O)[O-])ccc2S1)c1ccccc1`, the TGI in assay [3], in assay [4], in assay [5], in assay [6] and in assay [7] was > 100 µM each time.

For `Cn1c(=O)c2[nH]c(N=O)nc2n(C)c1=O`, the TGI in assay [1], in assay [2], in assay [3], in assay [4], in assay [5] and in assay [6] was > 100 µM each time. Also, the TGI in assay [7] is > 100 µM.

Turning to `COC(=O)c1ccc2c(c1)CC1(C2)Cc2cc3c(cc2C1)CCC3`, the TGI in assay [3], in assay [4], in assay [5], in assay [6] and in assay [7] was > 100 µM each time.

As to `O=c1[nH]/c(=C/c2ccc3c(c2)OCO3)c(=O)[nH]/c1=C/c1ccc2c(c1)OCO2`, the TGI in assay [1], in assay [2], in assay [3], in assay [4], in assay [5] and in assay [6] was > 10 µM in each case. Further, in assay [7], the TGI is > 10 µM.

With `O=[N+]([O-])c1ccc(SN=S=NSc2cccc(SN=S=NSc3ccc([N+](=O)[O-])cc3)c2)cc1`, the TGI in assay [1] is 40.6 µM; in assay [2], > 100 µM; in assay [3], > 100 µM; in assay [4], 98.8 µM; in assay [5], > 100 µM; in assay [6], 74.3 µM.

Regarding `CNC(=O)c1n[nH]n(C2CCCCC2)c1=S`, the TGI in assay [2] is > 100 µM; in assay [3], > 100 µM; in assay [4], > 100 µM; in assay [5] it was 37 µM; in assay [6] it was > 100 µM; in assay [7] it was > 100 µM.

With `CN(C)CCN(C)P12(Oc3ccccc3O1)Oc1c(Cl)c(Cl)c(Cl)c(Cl)c1O2`, the TGI in assay [1], in assay [3], in assay [4], in assay [5] and in assay [6] was > 100 µM throughout.

As for `CC(C)[C@@H]1CC[C@@H](C)C[C@H]1OC(=O)c1c2n(c3ccccc13)C[C@H]1OC(C)(C)O[C@@H]21`, the TGI in assay [1], in assay [2], in assay [3], in assay [4], in assay [5] and in assay [6] was > 100 µM in each case.

`CCS(=O)C(=O)N(O)c1ccc(Cl)cc1` (configuration not stated): the TGI is 47.2 µM in assay [2]; 35.1 µM in assay [3]; 41.4 µM in assay [4]; > 100 µM in assay [5]; > 100 µM in assay [6]; 52.8 µM in assay [7].

For `CC(=O)OI1NC(=O)c2ccccc21`, the TGI in assay [2], in assay [3], in assay [4], in assay [5] and in assay [6] was > 100 µM throughout.

Take `CO/C(N)=C(\C#N)N=Cc1ccc2ccccc2c1`: the TGI in assay [1], in assay [2], in assay [4] and in assay [5] was > 100 µM in each case.

Turning to `CC1(C)C2CCC3CC(CCC#N)CCC3C21C#N` (configuration not stated), the TGI in assay [2], in assay [3], in assay [4], in assay [5], in assay [6] and in assay [7] was > 100 µM each time.

With `COc1ccc(/C=c2\c(=O)[nH]c3nc4ccccc4c(=O)n23)cc1`, the TGI in assay [1], in assay [2], in assay [3], in assay [5], in assay [6] and in assay [7] was > 100 µM each time.

Regarding `Clc1ccc(Nc2nnc(CNc3ccc(-c4nnc(Nc5ccc(Cl)cc5)s4)cc3)s2)cc1`, the TGI in assay [1] was > 100 µM; in assay [2] it was 36.6 µM; in assay [3] it was 58.4 µM; in assay [4], 58.1 µM; in assay [6], > 100 µM.

On to `CN(C)c1ccc(/C=C/C(=O)c2ccc(O)cc2)cc1`, for which the TGI in assay [1] is > 59 µM; in assay [2] it was > 100 µM; in assay [3], > 100 µM; in assay [5], 9.37 µM; in assay [6] it was > 100 µM; in assay [7], 13.5 µM.

On to `Clc1ccc(Cl)c(N=Nc2cc3c4c(c2)CCN4CCC3)c1`, for which the TGI in assay [2], in assay [3], in assay [4], in assay [5] and in assay [7] was > 10 µM throughout.

For the compound `C=CCCC1(O)C(O)C(CO)O[C@H](O[C@@]2(CO)OC(CO)C(O)C2O)C1O` (some centres not stated), the TGI in assay [1], in assay [2], in assay [3], in assay [6] and in assay [7] was > 100 µM throughout.

Take `CCCCOCCOCCOC1=CC(=O)c2c(O)ccc(O)c2C1=O`: the TGI was 3.16 µM in assay [1]; 3.3 µM in assay [2]; 2.85 µM in assay [3]; 0.329 µM in assay [4]; 3 µM in assay [5]; 3.46 µM in assay [7].

As for `CC1(C)OC(=O)C(C)(C)C(=O)O1`, the TGI in assay [1], in assay [2], in assay [3], in assay [4], in assay [6] and in assay [7] was > 100 µM in each case.

Consider `O=C1N=C2SC=C(NC(=S)Nc3ccccc3)N2NC12c1ccccc1-c1ccccc12`, for which the TGI in assay [1], in assay [2], in assay [3], in assay [4], in assay [6] and in assay [7] was > 10 µM throughout.
